Series [1] is described as follows: examination of injected rats for tolerance and gelling at the point of injection. To be noted: 50 μg per rat sc. The class given is in vivo.
Series [2] in a line: hydrophilicity by RP-HPLC retention time, TEAP pH 7.0 gradient. The class given is physicochemical. To be noted: 40% to 70% Buffer B over 30 minutes. The method, then: Hydrophilicity is tested by measuring retention time using RP-HPLC with a gradient of 40% Buffer B to 70% Buffer B over 30 minutes, with Buffer A being TEAP pH 7.0 and Buffer B being 70% CH3 CN and 30% Buffer A at pH 7.0.

The test system of the next series is LH secretion. Briefly: in vivo suppression of circulating LH levels in castrated male Sprague-Dawley rats treated subcutaneously. Also on record: species or system rat. To be noted: for in vivo suppression of LH secretion compared with a reference peptide: dosage not printed at the place; for suppression of LH compared with a reference peptide: standard in vivo rat test as in Example 1. The method, then: The peptide is hereinafter referred to as Peptide No. 1 and is assayed in vivo to determine its effectiveness to suppress secretion of LH in rats. Measurement of circulating LH levels in castrated male Sprague-Dawley rats treated subcutaneously with the peptide is carried out as reported in C. Rivier et al. Biol. Reproduc., 1983. 29, 374-378. The peptides are first dissolved at a concentration of 1.0 or 10 mg/ml in bacteriostatic water and then further diluted in 0.04M phosphate buffer containing 0.1% BSA. Subsequent dilutions are made in phosphate buffer. The peptides are injected sc, and blood samples (300 μl) are collected under metotane anesthesia. Sera (50 […]) are tested for LH levels in duplicate using reagents provided by the National Pituitary and Hormone Distribution Program of the NIDDK. […] However, 96 hours following injection, the LH levels are only about 75% of those of the Acyline-injected rats.

Where [3] appears, read: dosage of 50 micrograms per rat sc.

*1 amine or outer side, *2 acyl side, *3 side chain or, on linkers, in order; H or OH if unused. Where a SMILES comes first, the peptide text is derived from it. Side-chain parts run from the residue outwards. [ ]: non-standard residue; d: D form. dPhe(4-NH2) = Nc1ccc(C[C@@H](N)C(=O)O)cc1; dPhe(4-Cl) = N[C@H](Cc1ccc(Cl)cc1)C(=O)O; Phe(4-NH2) = Nc1ccc(C[C@H](N)C(=O)O)cc1; d2Nal = N[C@H](Cc1ccc2ccccc2c1)C(=O)O; Lys(iPr) = CC(C)NCCCC[C@H](N)C(=O)O; dDap = NC[C@@H](N)C(=O)O; CO = O=C([*:1])[*:2]

As to `CNC(=O)NC[C@@H](NC(=O)[C@@H](Cc1ccc(Cl)cc1)NC(=O)[C@@H](Cc1ccc2ccccc2c1)NC(C)=O)C(=O)N[C@@H](CO)C(=O)N[C@@H](Cc1ccc(NC(C)=O)cc1)C(=O)N[C@H](Cc1ccc(NC(C)=O)cc1)C(=O)N[C@@H](CC(C)C)C(=O)N[C@@H](CCCCNC(C)C)C(=O)N1CCC[C@H]1C(=O)N[C@H](C)C(N)=O` [Peptide No. 1, Ac-D-2Nal-(4Cl)D-Phe-D-Dpr(methylcarbamoyl)-Ser-4Aph (acetyl)-D-4Aph(acetyl)-Leu-Lys(isopropyl)-Pro-D-Ala-NH2] (Ac-[d2Nal][dPhe(4-Cl)][dDap]([CO-NHMe])S[Phe(4-NH2)](Ac)[dPhe(4-NH2)](Ac)L[Lys(iPr)]P[dA]-NH2), in series [1], the “gelling at the point of injection” value is listed as “no significant gelling at the point of injection being detectable” and the “tolerance of the peptide in injected rats” value is listed as “very well tolerated”.

For “Ac-D-2Nal-D-4Cpa-D-Dpr(methylcarbamoyl)-Ser-4Aph(Gab)(atz)-D-4Aph(Gab)(atz)-Leu-ILys-Pro-D-Ala-NH2 [Peptide No. 5A]”, the “hydrophilicity compared with a reference peptide” value in series [2] is given as “more hydrophilic than Antide”. For the same molecule, in the series on LH secretion, the “in vivo suppression of LH secretion compared with a reference peptide” value is “longer duration of in vivo suppression of LH secretion than Acyline”.

Consider “Ac-D-2Nal-D-4Cpa-D-Dpr(methylcarbamoyl)-Ser-4Aph(β-Ala)(atz)-D-4Aph(β-Ala)(atz)-Leu-ILys-Pro-D-Ala-NH2 [Peptide No. 5B]”, for which the “hydrophilicity compared with a reference peptide” value in series [2] is reported as “more hydrophilic than Antide”. For the same molecule, the “in vivo suppression of LH secretion compared with a reference peptide” value in the series with LH secretion is listed as “longer duration of in vivo suppression of LH secretion than Antide”.

As for “Ac-β-D-2Nal-D-4Cpa-D-Dpr(methylcarbamoyl)-Ser-4Aph(Hor)-D-Aph(Hor)-Leu-Lys(isopropyl)-Pro-D-Ala-NH2 [Example 5E]”, in series [2], the “hydrophilicity compared with a reference peptide” value was “more hydrophilic than Acyline”. In addition, in the series on LH secretion (setting [3]), the “duration of action, as classed in words” value is given as “long-acting”; the “suppression of LH compared with a reference peptide” value was “substantially as active as Acyline in suppressing LH level at 1, 2 and 3 days”.

“Ac-β-D-2Nal-D-4Cpa-Gln-Ser-4Aph(hydroorotyl)-D-4Amf(methylcarbamoyl)- Leu-Lys(isopropyl)-Pro-D-Ala-NH2 [Example 8F]”: the “hydrophilicity compared with a reference peptide” value in series [2] is “more hydrophilic than Acyline”. The “suppression of LH compared with a reference peptide” value in the series with LH secretion (setting [3]) is reported as “substantially as effective as Acyline for 3 days”.

Source of the values: patent US5821230A, “GnRH antagonist decapeptides” (Ferring BV, priority 1997, dated 1998).
